The values that follow come from publication PMC8445441, “Elucidating the mechanism by which synthetic helper peptides sensitize Pseudomonas aeruginosa to multiple antibiotics” (PLoS Pathogens, 2021).

Experiment [1] concerns P. aeruginosa PAO1. Put plainly: microbe, parasite or virus in culture. Conditions: for MICa: the MIC of antibiotics: antibiotic alone. The procedure:
(§1) The MIC tests were performed in triplicate using broth microdilution in accordance with Clinical and Laboratory Standards Institute (CLSI) recommendations (http://iacld.ir/DL/public/CLSI-2018-M100-S28.pdf). Briefly, drugs were two-fold diluted in MHB and mixed with an equal volume of bacterial suspensions containing approximately 1 × 10^6 CFU/mL in 96-well microliter plate. After 18 h incubation at 37 °C, the MIC values were defined as the lowest concentrations of antibiotics with no visible growth of bacteria. […] Otherwise, 1/4 MIC of the peptide was used in the combination. […] If needed, membrane compounds PG, PE, PC, CL or LPS, or membrane stabilizers MgCl2 or CaCl2, or efflux pumps inhibitor PAβN were added to the broth medium to clarify the effect of other substances on the synergy between peptide and antibiotics. All the tests were performed in triplicate.
The fractional inhibitory concentration (FIC) indices were calculated using the previously described formula FICI = FICa + FICb = MICac/MICa + MICbc/MICb. The FICI was interpreted according to EUCAST [65] as follows: synergistic, FICI≤0.5; additive, 0.5<FICI≤1; indifferent, 1<FICI<2; antagonistic, FICI ≥2. For the FICI calculations, twice the highest concentration tested was used in the cases where the MIC was not reached.

Experiment [2] has as its system clinical P. aeruginosa isolates. Put plainly: microbe, parasite or virus in culture. Conditions: Pseudomonas aeruginosa, 18 h, antibiotic alone. The procedure: The bacterial strains, primers and plasmids used in this study are listed in S5 Table. […] Bacteria were cultured in LB medium or cation-adjusted Muller-Hinton broth (CA-MHB) at 37 °C with agitation at 220 rpm. All the antibiotics and chemical compounds used in this study were purchased from Sigma-Aldrich.
as §1

The mark [3] stands for this setting: S3 Table, PAO1, antibiotic + 2 μM D-11.
The mark [4] stands for this setting: S3 Table, PAO1, antibiotic + 4 μM D-11.
Setting [5] is: PAO1, peptide + azithromycin, twice the highest concentration used where MIC not reached.
[6] abbreviates: peptide alone, PAO1, broth microdilution in MHB, 18 h, 37 °C, triplicate.

Read-outs that look alike come from different tables or passages of the source. Non-standard residues stand in square brackets, D forms with d. Residues, ends and D or L forms follow the SMILES beside them. No end group written: not given here. *: point of attachment. βNA = c1ccc2cc(N*)ccc2c1

Regarding `CCO/N=C(\C(=O)N[C@@H]1C(=O)N2C(C(=O)[O-])=C(Sc3nc(-c4cc[n+](C)cc4)cs3)CS[C@H]12)c1nsc(N)n1` [Ceftaroline], the figures for the FICI in experiment [1] (setting [3]) and in experiment [1] (setting [4]) were 1.063 and 1.125, respectively. In addition, the “MICac: the MIC for the antibiotic in the combination” value was 128/128 μM in experiment [1] (S3 Table, PAO1, with 2 μM D-11) and 128/128 μM in experiment [1] (S3 Table, PAO1, with 4 μM D-11). The “MICa: the MIC of antibiotics” value in experiment [1] (S3 Table, PAO1) is given as 128/128 μM.

On to `CC1=C(C(=O)O)N2C(=O)[C@@H](NC(=O)[C@H](N)c3ccccc3)[C@H]2SC1` [Cephalexin], for which the FICI is recorded as 1.063 in experiment [1] (setting [3]) and 1.125 in experiment [1] (setting [4]).

As for `CC[C@@H](C)[C@@H](NC(=O)[C@H](N)CCCNC(=N)N)C(=O)N[C@@H](C(=O)N[C@H](CCC(N)=O)C(=O)N[C@H](CCCNC(=N)N)C(=O)N[C@@H](C(=O)N[C@H](CCCNC(=N)N)C(=O)N[C@H](CCCNC(=N)N)C(=O)N[C@H](Cc1c[nH]c2ccccc12)C(=O)N[C@H](CC(C)C)C(=O)N[C@H](CCCNC(=N)N)C(N)=O)[C@H](C)CC)C(C)C` [D-11-k(r)] (H-[dR][dI][dV][dQ][dR][dI][dR][dR][dW][dL][dR]-NH2), the FICI in experiment [1] (PAO1, peptide + Azithromycin, higher peptide concentration line) turned out to be 0.156; in experiment [1] (PAO1, peptide + Azithromycin, lower peptide concentration line), 0.188; in experiment [1] (PAO1, peptide + Clarithromycin, higher peptide concentration line), 0.156; in experiment [1] (PAO1, peptide + Clarithromycin, lower peptide concentration line), 0.125; in experiment [1] (PAO1, peptide + Erythromycin, higher peptide concentration line) it was 0.188; in experiment [1] (PAO1, peptide + Erythromycin, lower peptide concentration line), 0.188. In addition, the FICI is given as 1.125 in experiment [1] (PAO1, peptide + Spiramycin, higher peptide concentration line); 1.063 in experiment [1] (PAO1, peptide + Spiramycin, lower peptide concentration line); 0.188 in experiment [1] (PAO1, peptide + Telithromycin, higher peptide concentration line); 0.188 in experiment [1] (PAO1, peptide + Telithromycin, lower peptide concentration line); 0.156 in experiment [1] (setting [5]). Also, the “MICb: the MIC of the peptide” value in experiment [1] (S1 Table, peptide alone, PAO1) was 64 µM.

As to `CC[C@@H](C)[C@@H](NC(=O)[C@@H](CC(C)C)NC(=O)[C@@H](CCCNC(=N)N)NC(=O)[C@@H](Cc1c[nH]c2ccccc12)NC(=O)[C@H](N)CC(C)C)C(=O)N[C@H](CCCNC(=N)N)C(=O)N[C@H](CCCNC(=N)N)C(=O)N[C@H](Cc1ccccc1)C(=O)N[C@H](CC(C)C)C(=O)N[C@H](CCCNC(=N)N)C(=O)N[C@H](CCCNC(=N)N)C(N)=O` [D-RW-BP100R] (H-[dL][dW][dR][dL][dI][dR][dR][dF][dL][dR][dR]-NH2), the FICI in experiment [1] (setting [5]) is on record as 1.250. Also, the “MICb: the MIC of the peptide” value in experiment [1] (setting [6]) was found to be 4 µM.

For the molecule `CC[C@@H](C)[C@@H](NC(=O)[C@@H](CCCNC(=N)N)NC(=O)[C@@H](CCCNC(=N)N)NC(=O)[C@@H](Cc1ccccc1)NC(=O)[C@@H](CC(C)C)NC(=O)[C@@H](CCCNC(=N)N)NC(=O)[C@H](N)CCCNC(=N)N)C(=O)N[C@H](CC(C)C)C(=O)N[C@H](CCCNC(=N)N)C(=O)N[C@H](Cc1c[nH]c2ccccc12)C(=O)N[C@H](CC(C)C)C(N)=O` [D-RW-BP100] (H-[dR][dR][dL][dF][dR][dR][dI][dL][dR][dW][dL]-NH2), the FICI in experiment [1] (setting [5]) was 1.250. For the same molecule, the “MICb: the MIC of the peptide” value in experiment [1] (setting [6]) came out at 8 µM.

For the molecule `CC[C@H](C)[C@H](NC(=O)[C@H](CCCCN)NC(=O)[C@H](CCC(=O)O)NC(=O)[C@H](CCCCN)NC(=O)[C@H](CO)NC(=O)[C@H](CCCCN)NC(=O)[C@H](CCCNC(=N)N)NC(=O)[C@H](Cc1ccccc1)NC(=O)[C@H](Cc1ccccc1)NC(=O)[C@H](CC(=O)O)NC(=O)CNC(=O)[C@H](CC(C)C)NC(=O)[C@@H](N)CC(C)C)C(=O)NCC(=O)N[C@@H](CCCCN)C(=O)N[C@@H](CCC(=O)O)C(=O)N[C@@H](Cc1ccccc1)C(=O)N[C@@H](CCCCN)C(=O)N[C@@H](CCCNC(=N)N)C(=O)N[C@H](C(=O)N[C@H](C(=O)N[C@@H](CCC(N)=O)C(=O)N[C@@H](CCCNC(=N)N)C(=O)N[C@H](C(=O)N[C@@H](CCCCN)C(=O)N[C@@H](CC(=O)O)C(=O)N[C@@H](Cc1ccccc1)C(=O)N[C@@H](CC(C)C)C(=O)N[C@@H](CCCNC(=N)N)C(=O)N[C@@H](CC(N)=O)C(=O)N[C@@H](CC(C)C)C(=O)N[C@H](C(=O)N1CCC[C@H]1C(=O)N[C@@H](CCCNC(=N)N)C(=O)N[C@H](C(=O)N[C@@H](CCC(=O)O)C(=O)N[C@@H](CO)C(=O)O)[C@@H](C)O)C(C)C)[C@@H](C)CC)C(C)C)[C@@H](C)CC` [LL-37], the FICI in experiment [1] (setting [5]) was 0.75.

`Cc1ncc([N+](=O)[O-])n1CCO` [Metronidazole]: the FICI amounted to 1.063 in experiment [1] (setting [3]) and 1.125 in experiment [1] (setting [4]).

`Cc1onc(-c2ccccc2)c1C(=O)N[C@@H]1C(=O)N2[C@@H]1SC(C)(C)[C@@H]2C(=O)O` [Oxacillin]: the values for the FICI in experiment [1] (setting [3]) and in experiment [1] (setting [4]) were 1.063 and 1.125, respectively.

As to `NC(N)=NCCC[C@H](NC(=O)[C@@H](N)Cc1ccccc1)C(=O)Nc1ccc2ccccc2c1` [PAβN] (H-Phe-Arg-βNA), the “reduction of the MIC of azithromycin by PAβN” value in experiment [1] (PAO1, in the absence of D-11) was 64 fold; in experiment [1] (PAO1, in the presence of D-11, higher concentration of PAβN), “two”.

Consider `N=C(N)c1ccc(OCCCCCOc2ccc(C(=N)N)cc2)cc1` [Pentamidine], for which the FICI in experiment [1] (setting [3]) is 1.063; in experiment [1] (setting [4]) it was 1.125. For the same molecule, the “MICac: the MIC for the antibiotic in the combination” value in experiment [1] (S3 Table, PAO1, with 2 μM D-11) is 128/128 μM; in experiment [1] (S3 Table, PAO1, with 4 μM D-11), 128/128 μM. For the same molecule, the “MICa: the MIC of antibiotics” value in experiment [1] (S3 Table, PAO1) is 128/128 μM.

Turning to `CC[C@@H](C)[C@@H](NC(=O)[C@@H](CCCCN)NC(=O)[C@@H](CCCCN)NC(=O)[C@@H](Cc1c[nH]c2ccccc12)NC(=O)[C@@H](CC(C)C)NC(=O)[C@H](N)CCCNC(=N)N)C(=O)N[C@H](CCCNC(=N)N)C(=O)N[C@H](CCC(N)=O)C(=O)N[C@@H](C(=O)N[C@@H](C(=O)N[C@H](CCCNC(=N)N)C(=O)N[C@H](CCCCN)C(N)=O)[C@H](C)CC)C(C)C` [Peptide D-11R] (H-[dR][dL][dW][dK][dK][dI][dR][dQ][dV][dI][dR][dK]-NH2), in experiment [1] (PAO1, 18 h), the “MICb: the MIC of the peptide” value was 32 µM.

On to `CN(C)[C@@H]1C(O)=C(C(N)=O)C(=O)[C@@]2(O)C(O)=C3C(=O)c4c(O)cccc4[C@@](C)(O)[C@H]3C[C@@H]12` [Tetracycline], for which the MIC amounted to 64 µM in experiment [2] (read-out: Antibiotic sensibility (MIC) of clinical P. aeruginosa isolate AUMC-Pa-2, strain AUMC-Pa-2); 64 µM in experiment [2] (read-out: Antibiotic sensibility (MIC) of clinical P. aeruginosa isolate AUMC-Pa-3, strain AUMC-Pa-3); 64 µM in experiment [2] (read-out: Antibiotic sensibility (MIC) of clinical P. aeruginosa isolate AUMC-Pa-5, strain AUMC-Pa-5); 64 µM in experiment [2] (read-out: Antibiotic sensibility (MIC) of clinical P. aeruginosa isolate AUMC-Pa-6, strain AUMC-Pa-6); 64 µM in experiment [2] (read-out: Antibiotic sensibility (MIC) of clinical P. aeruginosa isolate HM-214, strain HM-214); 64 µM in experiment [2] (read-out: Antibiotic sensibility (MIC) of clinical P. aeruginosa isolate NR-31040, strain NR-31040). Also, the MIC in experiment [2] (read-out: Antibiotic sensibility (MIC) of clinical P. aeruginosa isolate NR-31041, strain NR-31041) came out at 64 µM.

For GIGKHVGKALKGLKGLLKGLGEC [ADP-1], the “MICb: the MIC of the peptide” value in experiment [1] (setting [6]) was 16 µM.

As for GNNRPVYIPQPRPPHPRL [Api1b], in experiment [1] (setting [5]), the FICI stood at 1.125. Further, the “MICb: the MIC of the peptide” value in experiment [1] (setting [6]) was more than 32 µM.

Take KHVGKALKGLK [ADP-1b]: in experiment [1] (PAO1, 18 h), the “MICb: the MIC of the peptide” value was more than 32 µM.

Turning to KIAKVALKALK [PEP10], in experiment [1] (setting [5]), the FICI turned out to be 1.125. For the same molecule, the “MICb: the MIC of the peptide” value in experiment [1] (setting [6]) was more than 32 µM.

Turning to KRIVQRIKKWLR-NH2 [KR-12-a2], in experiment [1] (PAO1, 18 h), the “MIC of the peptide” value was not below 32 µM and the “MICb: the MIC of the peptide” value turned out to be 32 µM.

Regarding LKGLKGLLKGL [ADP-1c], the “MICb: the MIC of the peptide” value in experiment [1] (PAO1, 18 h) is more than 32 µM.

As for LKGLKGLLKGLGEC [ADP-1a], the “MICb: the MIC of the peptide” value in experiment [1] (PAO1, 18 h) was more than 32 µM.

NGVQPKYK [PEP9]: the “MICb: the MIC of the peptide” value in experiment [1] (PAO1, 18 h) was more than 32 µM.

With RIVQRIKKWLR-NH2 [Peptide L-11], in experiment [1] (PAO1, 18 h), the “MIC of the peptide” value is not below 32 µM and the “MICb: the MIC of the peptide” value stood at 32 µM.

Consider RIVQWIKKWLR-NH2 [Peptide L-11-R5W], for which the FICI in experiment [1] (setting [5]) was 1.250. For the same molecule, the “MICb: the MIC of the peptide” value in experiment [1] (setting [6]) is 4 µM.

As to RIWVIWRR-NH2 [Bac8c], the FICI in experiment [1] (setting [5]) was found to be 1.250. For the same molecule, the “MICb: the MIC of the peptide” value in experiment [1] (setting [6]) was 4 µM.
